Test results as given in patent US20240101540A1, “TARGETED PROTEIN DEGRADATION OF PARP14 FOR USE IN THERAPY” (Ribon Therapeutics, Inc., priority 2022, published 2024).

Target: T1, HiBiT tagged PARP14 (Homo sapiens, UniProt Q460N5)
T1 construct: engineered to contain a HiBiT tag on both alleles of the PARP14 gene; endogenous in cells; host or cells: Jurkat cells stably transfected with LgBiT (Promega), PARP14 locus edited by CRISPR/Cas9
Assay: HiBiT assay for the degradation of PARP14 (HiBiT tagged PARP14 in LgBiT expressing Jurkat cells, 2 or 24 hours)
Format: cell-based
Settings: Assay B (Example B): HiBiT tagged PARP14 degradation in LgBiT expressing Jurkat cells, read-out: DC50
Outline: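 Jurkat cells stably expressing LgBiT with CRISPR knock-in of C-terminal HiBiT on both PARP14 alleles, 5,000 cells/well, treated with compound dose-response at 37 °C for 2 or 24 h. Live Cell Substrate luminescence normalised to 0.1% DMSO wells; DC50 from 4-parameter fit with floating top, bottom, Hill.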

T1 sequence (Q460N5 whole entry): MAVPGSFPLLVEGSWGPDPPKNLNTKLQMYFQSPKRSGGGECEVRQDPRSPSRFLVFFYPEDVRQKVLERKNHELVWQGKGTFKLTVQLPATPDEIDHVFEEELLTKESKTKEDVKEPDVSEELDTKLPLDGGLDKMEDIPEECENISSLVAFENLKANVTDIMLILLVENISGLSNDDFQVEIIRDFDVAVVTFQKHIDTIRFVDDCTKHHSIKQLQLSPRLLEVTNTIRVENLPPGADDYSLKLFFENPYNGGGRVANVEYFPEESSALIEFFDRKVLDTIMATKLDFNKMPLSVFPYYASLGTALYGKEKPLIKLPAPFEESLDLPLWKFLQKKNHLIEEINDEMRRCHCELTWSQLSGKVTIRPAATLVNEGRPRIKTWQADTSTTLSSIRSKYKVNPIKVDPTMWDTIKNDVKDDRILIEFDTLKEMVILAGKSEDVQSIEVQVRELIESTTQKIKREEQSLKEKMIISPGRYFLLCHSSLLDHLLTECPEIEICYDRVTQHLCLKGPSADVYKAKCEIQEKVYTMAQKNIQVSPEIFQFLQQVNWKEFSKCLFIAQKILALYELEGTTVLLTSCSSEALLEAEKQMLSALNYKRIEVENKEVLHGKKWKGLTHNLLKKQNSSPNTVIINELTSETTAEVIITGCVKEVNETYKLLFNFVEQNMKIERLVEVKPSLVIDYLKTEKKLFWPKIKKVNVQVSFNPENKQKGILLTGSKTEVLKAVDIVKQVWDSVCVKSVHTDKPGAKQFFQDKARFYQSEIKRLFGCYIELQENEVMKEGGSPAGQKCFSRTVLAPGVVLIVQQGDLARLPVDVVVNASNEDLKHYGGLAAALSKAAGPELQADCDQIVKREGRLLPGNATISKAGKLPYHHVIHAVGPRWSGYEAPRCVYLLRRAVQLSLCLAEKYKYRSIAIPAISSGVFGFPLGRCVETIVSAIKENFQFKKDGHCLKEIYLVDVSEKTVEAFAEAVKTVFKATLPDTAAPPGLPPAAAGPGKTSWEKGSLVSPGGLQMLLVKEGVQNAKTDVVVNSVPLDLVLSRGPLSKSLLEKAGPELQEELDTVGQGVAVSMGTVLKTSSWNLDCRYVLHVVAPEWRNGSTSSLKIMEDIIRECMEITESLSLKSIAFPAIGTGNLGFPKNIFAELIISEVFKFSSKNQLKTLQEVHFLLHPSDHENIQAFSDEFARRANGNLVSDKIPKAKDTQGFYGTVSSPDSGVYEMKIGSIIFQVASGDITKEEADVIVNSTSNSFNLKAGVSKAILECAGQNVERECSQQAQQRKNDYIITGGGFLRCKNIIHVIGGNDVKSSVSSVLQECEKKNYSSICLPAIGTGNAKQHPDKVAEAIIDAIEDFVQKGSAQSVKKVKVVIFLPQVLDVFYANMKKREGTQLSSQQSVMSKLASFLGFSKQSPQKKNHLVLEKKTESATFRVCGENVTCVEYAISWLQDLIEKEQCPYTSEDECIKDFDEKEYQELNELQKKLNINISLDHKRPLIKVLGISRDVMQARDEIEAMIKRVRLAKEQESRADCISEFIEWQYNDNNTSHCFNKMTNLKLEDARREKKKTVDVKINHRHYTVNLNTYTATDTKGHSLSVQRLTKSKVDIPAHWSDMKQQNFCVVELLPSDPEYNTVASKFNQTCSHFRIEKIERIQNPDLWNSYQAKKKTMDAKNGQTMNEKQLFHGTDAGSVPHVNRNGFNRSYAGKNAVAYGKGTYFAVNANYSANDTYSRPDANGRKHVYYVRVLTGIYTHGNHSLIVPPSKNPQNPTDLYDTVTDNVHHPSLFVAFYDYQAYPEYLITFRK

Compound | DC50 [nM]
Cn1nc(N2CCC(=O)NC2=O)c2ccc(C3CCN(C4CCN(CCOc5cc(F)c6c(=O)[nH]c(CSC7CCOCC7)nc6c5)CC4)CC3)cc21 [Example 187, 1-(6-(1′-(2-((5-fluoro-4-oxo-2-(((tetrahydro-2H-pyran-4-yl)thio)methyl)-3,4-dihydroquinazolin-7-yl)oxy)ethyl)-[1,4′-bipiperidin]-4-yl)-1-methyl-1H-indazol-3-yl)dihydropyrimidine-2,4(1H,3H)-dione diformate] | < 30
O=C1CCC(Nc2ccc(C(=O)N3CCN(CCN4CCC(COc5cc(F)c6c(=O)[nH]c(CSC7CCOCC7)nc6c5)CC4)CC3)cc2)C(=O)N1 (centres unmarked) [Example 188, 3-((4-(4-(2-(4-(((5-fluoro-4-oxo-2-(((tetrahydro-2H-pyran-4-yl)thio)methyl)-3,4-dihydroquinazolin-7-yl)oxy)methyl)piperidin-1-yl)ethyl)piperazine-1-carbonyl)phenyl)amino)piperidine-2,6-dione] | < 30
O=C1CCC(Nc2ccc(N3CCN(C(=O)CN4CCC(COc5cc(F)c6c(=O)[nH]c(CSC7CCOCC7)nc6c5)CC4)CC3)c(F)c2)C(=O)N1 (centres unmarked) [Example 189, 3-((3-fluoro-4-(4-(2-(4-(((5-fluoro-4-oxo-2-(((tetrahydro-2H-pyran-4-yl)thio)methyl)-3,4-dihydroquinazolin-7-yl)oxy)methyl)piperidin-1-yl)acetyl)piperazin-1-yl)phenyl)amino)piperidine-2,6-dione] | < 30
O=C1CCC(N2C(=O)c3ccc(N4CCC(N5CCC(COc6cc(F)c7c(=O)[nH]c(CSC8CCOCC8)nc7c6)CC5)CC4)cc3C2=O)C(=O)N1 (centres unmarked) [Example 190, 2-(2,6-dioxopiperidin-3-yl)-5-(4-(((5-fluoro-4-oxo-2-(((tetrahydro-2H-pyran-4-yl)thio)methyl)-3,4-dihydroquinazolin-7-yl)oxy)methyl)-[1,4′-bipiperidin]-1′-yl)isoindoline-1,3-dione] | < 30
O=C1CCC(N2C(=O)c3ccc(N4CCC(N5CC(N6CCC(COc7cc(F)c8c(=O)[nH]c(CSC9CCOCC9)nc8c7)CC6)C5)CC4)cc3C2=O)C(=O)N1 (centres unmarked) [Example 191, 2-(2,6-dioxopiperidin-3-yl)-5-(4-(3-(4-(((5-fluoro-4-oxo-2-(((tetrahydro-2H-pyran-4-yl)thio)methyl)-3,4-dihydroquinazolin-7-yl)oxy)methyl)piperidin-1-yl)azetidin-1-yl)piperidin-1-yl)isoindoline-1,3-dione] | < 30
O=C1CCC(Nc2ccc(N3CCN(CCN4CCC(COc5cc(F)c6c(=O)[nH]c(COC7CCOCC7)nc6c5)CC4)CC3)cc2F)C(=O)N1 (centres unmarked) [Example 192, 3-((2-fluoro-4-(4-(2-(4-(((5-fluoro-4-oxo-2-(((tetrahydro-2H-pyran-4-yl)oxy)methyl)-3,4-dihydroquinazolin-7-yl)oxy)methyl)piperidin-1-yl)ethyl)piperazin-1-yl)phenyl)amino)piperidine-2,6-dione diformate] | < 30
O=C1CCC(Nc2ccc(N3CCN(CCN4CC(COc5cc(F)c6c(=O)[nH]c(CSC7CCOCC7)nc6c5)C4)CC3)c(F)c2)C(=O)N1 (centres unmarked) [Example 193, 3-((3-fluoro-4-(4-(2-(3-(((5-fluoro-4-oxo-2-(((tetrahydro-2H-pyran-4-yl)thio)methyl)-3,4-dihydroquinazolin-7-yl)oxy)methyl)azetidin-1-yl)ethyl)piperazin-1-yl)phenyl)amino)piperidine-2,6-dione] | < 30
O=C1CCC(Nc2ccc(N3CCN(CCN4CCC(COc5cc(F)c6c(=O)[nH]c(CSC7CCCCC7)nc6c5)CC4)CC3)c(F)c2)C(=O)N1 (centres unmarked) [Example 194, 3-({4-[4-(2-{4-[({2-[(cyclohexylsulfanyl)methyl]-5-fluoro-4-oxo-3H-quinazolin-7-yl}oxy)methyl]piperidin-1-yl}ethyl)piperazin-1-yl]-3-fluorophenyl}amino)piperidine-2,6-dione] | < 30
Cn1nc(C2CCC(=O)NC2=O)c2cc(F)c(C3CCN(CCN4CCC(COc5cc(F)c6c(=O)[nH]c(CSC7CCOCC7)nc6c5)CC4)CC3)cc21 (centres unmarked) [Example 195, 3-(5-fluoro-6-(1-(2-(4-(((5-fluoro-4-oxo-2-(((tetrahydro-2H-pyran-4-yl)thio)methyl)-3,4-dihydroquinazolin-7-yl)oxy)methyl)piperidin-1-yl)ethyl)piperidin-4-yl)-1-methyl-1H-indazol-3-yl)piperidine-2,6-dione] | < 30
O=C1CCN(c2ccc(N3CCN(CCN4CCC(COc5cc(F)c6c(=O)[nH]c(CSC7CCOCC7)nc6c5)CC4)CC3)c(F)c2)C(=O)N1 [Example 196, 1-(3-fluoro-4-(4-(2-(4-(((5-fluoro-4-oxo-2-(((tetrahydro-2H-pyran-4-yl)thio)methyl)-3,4-dihydroquinazolin-7-yl)oxy)methyl)piperidin-1-yl)ethyl)piperazin-1-yl)phenyl)dihydropyrimidine-2,4(1H,3H)-dione] | < 30
O=C1CCN(c2ccc(N3CCN(CCN4CCC(COc5cc(F)c6c(=O)[nH]c(COC7CCOCC7)nc6c5)CC4)CC3)c(F)c2)C(=O)N1 [Example 197, 1-(3-fluoro-4-(4-(2-(4-(((5-fluoro-4-oxo-2-(((tetrahydro-2H-pyran-4-yl)oxy)methyl)-3,4-dihydroquinazolin-7-yl)oxy)methyl)piperidin-1-yl)ethyl)piperazin-1-yl)phenyl)dihydropyrimidine-2,4(1H,3H)-dione] | < 30
Cn1nc(N2CCC(=O)NC2=O)c2cc(F)c(C3CCN(CCN4CCC(COc5cc(F)c6c(=O)[nH]c(COC7CCOCC7)nc6c5)CC4)CC3)cc21 [Example 198, 1-(5-fluoro-6-(1-(2-(4-(((5-fluoro-4-oxo-2-(((tetrahydro-2H-pyran-4-yl)oxy)methyl)-3,4-dihydroquinazolin-7-yl)oxy)methyl)piperidin-1-yl)ethyl)piperidin-4-yl)-1-methyl-1H-indazol-3-yl)dihydropyrimidine-2,4(1H,3H)-dione] | < 30
O=C1CCC(Nc2ccc(NC(=O)[C@H]3CCN(CCN4CCC(COc5cc(F)c6c(=O)[nH]c(COC7CCOCC7)nc6c5)CC4)C3)c(F)c2)C(=O)N1 (stereo partly drawn) [Example 199, (3S)-N-(4-((2,6-dioxopiperidin-3-yl)amino)-2-fluorophenyl)-1-(2-(4-(((5-fluoro-4-oxo-2-(((tetrahydro-2H-pyran-4-yl)oxy)methyl)-3,4-dihydroquinazolin-7-yl)oxy)methyl)piperidin-1-yl)ethyl)pyrrolidine-3-carboxamide] | < 30
O=C1CCC(Nc2ccc(NC(=O)[C@@H]3CCN(CCN4CCC(COc5cc(F)c6c(=O)[nH]c(COC7CCOCC7)nc6c5)CC4)C3)c(F)c2)C(=O)N1 (stereo partly drawn) [Example 200, (3R)-N-(4-((2,6-dioxopiperidin-3-yl)amino)-2-fluorophenyl)-1-(2-(4-(((5-fluoro-4-oxo-2-(((tetrahydro-2H-pyran-4-yl)oxy)methyl)-3,4-dihydroquinazolin-7-yl)oxy)methyl)piperidin-1-yl)ethyl)pyrrolidine-3-carboxamide] | < 30
O=C1CCC(Nc2ccc(NC(=O)C3CCN(CCN4CCC(COc5cc(F)c6c(=O)[nH]c(COC7CCOCC7)nc6c5)CC4)CC3)c(F)c2)C(=O)N1 (centres unmarked) [Example 201, N-(4-((2,6-dioxopiperidin-3-yl)amino)-2-fluorophenyl)-1-(2-(4-(((5-fluoro-4-oxo-2-(((tetrahydro-2H-pyran-4-yl)oxy)methyl)-3,4-dihydroquinazolin-7-yl)oxy)methyl)piperidin-1-yl)ethyl)piperidine-4-carboxamide] | < 30
CN(C(=O)C1CCN(CCN2CCC(COc3cc(F)c4c(=O)[nH]c(COC5CCOCC5)nc4c3)CC2)CC1)c1ccc(NC2CCC(=O)NC2=O)cc1F (centres unmarked) [Example 202, N-(4-((2,6-dioxopiperidin-3-yl)amino)-2-fluorophenyl)-1-(2-(4-(((5-fluoro-4-oxo-2-(((tetrahydro-2H-pyran-4-yl)oxy)methyl)-3,4-dihydroquinazolin-7-yl)oxy)methyl)piperidin-1-yl)ethyl)-N-methylpiperidine-4-carboxamide] | < 30
Cn1nc(N2CCC(=O)NC2=O)c2cccc(C3CCN(CCN4CCC(COc5cc(F)c6c(=O)[nH]c(COC7CCOCC7)nc6c5)CC4)CC3)c21 [Example 203, 1-(7-(1-(2-(4-(((5-fluoro-4-oxo-2-(((tetrahydro-2H-pyran-4-yl)oxy)methyl)-3,4-dihydroquinazolin-7-yl)oxy)methyl)piperidin-1-yl)ethyl)piperidin-4-yl)-1-methyl-1H-indazol-3-yl)dihydropyrimidine-2,4(1H,3H)-dione] | < 30
O=C1CCN(c2ccc(C3CCN(CCN4CCC(COc5cc(F)c6c(=O)[nH]c(COC7CCOCC7)nc6c5)CC4)CC3)c(F)c2)C(=O)N1 [Example 204, 1-(3-fluoro-4-(1-(2-(4-(((5-fluoro-4-oxo-2-(((tetrahydro-2H-pyran-4-yl)oxy)methyl)-3,4-dihydroquinazolin-7-yl)oxy)methyl)piperidin-1-yl)ethyl)piperidin-4-yl)phenyl)dihydropyrimidine-2,4(1H,3H)-dione] | < 30
Cn1nc(N2CCC(=O)NC2=O)c2ccc(C3CCN(CCN4CCC(COc5cc(F)c6c(=O)[nH]c(COC7CCOCC7)nc6c5)CC4)CC3)c(F)c21 [Example 205, 1-(7-fluoro-6-(1-(2-(4-(((5-fluoro-4-oxo-2-(((tetrahydro-2H-pyran-4-yl)oxy)methyl)-3,4-dihydroquinazolin-7-yl)oxy)methyl)piperidin-1-yl)ethyl)piperidin-4-yl)-1-methyl-1H-indazol-3-yl)dihydropyrimidine-2,4(1H,3H)-dione] | < 30
O=C1CCC(Nc2ccc(N3CCN(CCN4CCC(COc5ccc6c(=O)[nH]c(CSC7CCOCC7)nc6c5)CC4)CC3)c(F)c2)C(=O)N1 (centres unmarked) [Example 206, 3-((3-fluoro-4-(4-(2-(4-(((4-oxo-2-(((tetrahydro-2H-pyran-4-yl)thio)methyl)-3,4-dihydroquinazolin-7-yl)oxy)methyl)piperidin-1-yl)ethyl)piperazin-1-yl)phenyl)amino)piperidine-2,6-dione] | < 30
